This passage reports Activity and IC50 results from ChEMBL document CHEMBL2086269, “Identification of new snake venom metalloproteinase inhibitors using compound screening and rational Peptide design” (ACS Med Chem Lett, 2012).

Structures can show the parent of a compound that is named as a salt. Activity calls are given as the source filed them. The rule behind the calls is not given here. Residues, ends and D or L forms follow the SMILES beside them. *: point of attachment. NHOH = ON* Bounds are passed on as bounds.

Test system in the first test: not listed separately
The experiment in a line: Displacement of PAC1 from Zn2+ incubated for 30 mins prior to PAC1 addition measured after 30 mins by spectrophotometry.
In the case of `CC(C)C[C@H](NC(=O)[C@@H](N)Cc1ccccc1)C(=O)N[C@@H](Cc1ccccc1)C(=O)NO` (H-Phe-Leu-Phe-{NHOH}), the outcome was Active.

In the case of `CC(C)C[C@H](NC(=O)[C@@H](N)Cc1ccccc1)C(=O)N[C@@H](CCCNC(=N)N)C(=O)NO` (H-Phe-Leu-Arg-{NHOH}), the outcome was Active.

The target of the next test is T1, Snake venom metalloproteinase BaP1 (Bothrops asper, UniProt P83512).
T1 sequence (P83512 whole entry): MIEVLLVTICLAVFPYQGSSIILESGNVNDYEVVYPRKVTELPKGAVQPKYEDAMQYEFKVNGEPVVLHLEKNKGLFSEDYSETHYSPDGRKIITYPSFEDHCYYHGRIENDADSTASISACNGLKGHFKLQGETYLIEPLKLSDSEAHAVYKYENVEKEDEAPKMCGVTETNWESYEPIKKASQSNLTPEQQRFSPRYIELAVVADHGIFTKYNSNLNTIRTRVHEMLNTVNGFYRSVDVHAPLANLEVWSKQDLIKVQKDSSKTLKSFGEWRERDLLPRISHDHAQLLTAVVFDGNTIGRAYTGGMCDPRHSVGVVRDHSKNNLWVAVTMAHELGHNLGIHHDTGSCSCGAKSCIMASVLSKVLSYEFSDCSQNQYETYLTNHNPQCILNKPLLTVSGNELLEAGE
Put plainly: Inhibition of snake venom BaP1 using Abz-Ala-Gly-Leu-Ala-Nba as substrate incubated for 30 mins prior to substrate addition by fluorescence spectrophotometry.
Compound `NC(=O)N/N=C/c1ccc([N+](=O)[O-])o1` [NITROFURAZONE] registered an IC50 of 88.1 µM.

The compound `CC(C)C[C@H](NC(=O)[C@@H](N)Cc1ccccc1)C(=O)N[C@@H](Cc1ccccc1)C(N)=O` (H-Phe-Leu-Phe-NH2) yielded an IC50 of 825 µM.

Compound `COc1ccc2c3c([nH]c2c1)C(C)=NCC3` [HARMALINE HYDROCHLORIDE DIHYDRATE] registered a half-maximal inhibitory concentration (IC50) of 70.4 µM.

The compound `CC(C)C[C@H](NC(=O)[C@@H](N)Cc1ccccc1)C(=O)N[C@@H](Cc1cnc[nH]1)C(=O)NO` (H-Phe-Leu-His-{NHOH}) registered an IC50 of 108 µM.

As to `CC(C)C[C@H](NC(=O)[C@@H](N)Cc1c[nH]c2ccccc12)C(=O)N[C@@H](Cc1ccc(O)cc1)C(N)=O` (H-Trp-Leu-Tyr-NH2), it took 402 µM to reach half-maximal inhibition (IC50).

As for `CC(C)C[C@H](NC(=O)[C@@H](N)Cc1ccccc1)C(=O)N[C@@H](Cc1ccc(O)cc1)C(=O)NO` (H-Phe-Leu-Tyr-{NHOH}), the IC50 amounted to 30.9 µM.

`CC(C)C[C@H](NC(=O)[C@@H](N)Cc1ccccc1)C(=O)N[C@@H](Cc1ccccc1)C(=O)NO` (H-Phe-Leu-Phe-{NHOH}) gave an IC50 of 0.5 µM.

In the case of `CNC(=O)[C@H](Cc1ccccc1)NC(=O)[C@H](CC(C)C)[C@H](CSc1cccs1)C(=O)NO` [BATIMASTAT], the IC50 came to 1.2 µM.

In turn, `COc1cc2c(cc1OC)-c1cc3ccc(OC)c(OC)c3c[n+]1CC2` [PALMATINE CHLORIDE] yielded an IC50 of 93.3 µM.

Consider `CC(C)C[C@H](NC(=O)[C@@H](N)Cc1ccccc1)C(=O)N[C@@H](Cc1ccc(O)cc1)C(N)=O` (H-Phe-Leu-Tyr-NH2), for which the half-inhibitory concentration (IC50) was > 1000 µM.

In turn, `Nc1ccc(/N=N/c2ccccc2)c(N)n1` [PHENAZOPYRIDINE HYDROCHLORIDE] registered an IC50 of 54.3 µM.

`CC(C)C[C@H](NC(=O)[C@@H](N)Cc1c[nH]c2ccccc12)C(=O)N[C@@H](Cc1ccc(O)cc1)C(=O)NO` (H-Trp-Leu-Tyr-{NHOH}) registered an IC50 of 46.2 µM.

As to `CC(C)C[C@H](NC(=O)[C@@H](N)Cc1c[nH]c2ccccc12)C(=O)N[C@@H](Cc1ccccc1)C(N)=O` (H-Trp-Leu-Phe-NH2), the IC50 is > 1000 µM.

The compound `CC(C)C[C@H](NC(=O)[C@@H](N)Cc1ccccc1)C(=O)N[C@@H](CCCNC(=N)N)C(=O)NO` (H-Phe-Leu-Arg-{NHOH}) displayed an IC50 of 4.6 µM.

`CC(C)C[C@H](NC(=O)[C@@H](N)Cc1c[nH]c2ccccc12)C(=O)N[C@@H](Cc1ccccc1)C(=O)NO` (H-Trp-Leu-Phe-{NHOH}): the IC50 was 34.2 µM.

In turn, `CC(C)C[C@H](NC(=O)[C@@H](N)Cc1c[nH]c2ccccc12)C(=O)N[C@@H](CCCNC(=N)N)C(=O)NO` displayed an IC50 of 217 µM.

With `CC(C)C[C@H](NC(=O)[C@@H](N)Cc1c[nH]c2ccccc12)C(=O)N[C@@H](Cc1cnc[nH]1)C(=O)NO` (H-Trp-Leu-His-{NHOH}), half-maximal inhibition (IC50) required 58.4 µM.

The IC50 is the point on the concentration scale where inhibition reaches its midpoint. Lower therefore signals greater potency in that assay.
